Like-named read-outs stand apart in the source and are kept apart here.
Tests used:
[1] = target: T1, hM1 mAChR (Homo sapiens, UniProt P11229); assay: IP1 accumulation assay (ACh concentration-response curves in absence or presence of modulator); format: cell-based; conditions: for αβ (functional cooperativity with ACh) / τB (intrinsic efficacy of the modulator) / log τB (logarithm of intrinsic efficacy of the modulator) / log αβ (logarithm of functional cooperativity between ACh and modulator): IP1 accumulation; for αβ (functional cooperativity with ACh) / τB (intrinsic efficacy of the modulator): antilog, in parentheses; for log τB (logarithm of intrinsic efficacy of the modulator) / log αβ (logarithm of functional cooperativity between ACh and modulator): operational model; for log αβ (logarithm of functional cooperativity between ACh and modulator): pKB constrained to binding value; for ΔpEC50 [1 μM]: change in ACh pEC50 in presence of M1 PAM compared to control curve / activation at 1 µM: 1 μM modulator; for ΔpEC50 [1 μM]: change in ACh pEC50 in presence of M1 PAM compared to control curve / activation at 1 µM / ΔpEC50 [10 μM]: change in ACh pEC50 in presence of M1 PAM compared to control curve / activation at 10 µM: FlpIn CHO hM1 cells, mean ± SEM, 3 experiments; for activation at 1 µM: read-out: Δbaseline [1 μM]: change in basal response in presence of M1 PAM compared to control curve; for ΔpEC50 [10 μM]: change in ACh pEC50 in presence of M1 PAM compared to control curve / activation at 10 µM: 10 μM modulator; for activation at 10 µM: read-out: Δbaseline [10 μM]: change in basal response in presence of M1 PAM compared to control curve
T1 construct: expressed in transfected cells
T1 sequence (P11229 1-460): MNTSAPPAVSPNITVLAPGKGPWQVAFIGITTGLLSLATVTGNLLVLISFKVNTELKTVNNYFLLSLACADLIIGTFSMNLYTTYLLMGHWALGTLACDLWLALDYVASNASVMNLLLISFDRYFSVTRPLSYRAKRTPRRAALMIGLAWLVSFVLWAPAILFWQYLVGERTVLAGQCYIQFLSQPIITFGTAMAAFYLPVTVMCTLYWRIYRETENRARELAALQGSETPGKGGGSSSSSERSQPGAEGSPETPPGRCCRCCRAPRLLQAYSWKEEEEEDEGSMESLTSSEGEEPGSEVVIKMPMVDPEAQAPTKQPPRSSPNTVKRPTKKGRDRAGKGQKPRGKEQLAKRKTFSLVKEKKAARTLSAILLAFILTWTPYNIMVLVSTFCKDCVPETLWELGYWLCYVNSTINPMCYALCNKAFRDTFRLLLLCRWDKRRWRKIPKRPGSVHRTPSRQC
Procedure: Functional activity of the synthesized analogues as racemic mixtures was investigated in IP1 accumulation assays at the M1 mAChR, as described previously.[13–14] ACh concentration-response curves were generated in the absence or presence of a 1 and 10 μM concentration of each modulator. The change in baseline activity (Δbaseline) is an approximate measure of direct allosteric agonism (τB), whereas the pEC50 shift (ΔpEC50) is an approximate measure of functional cooperativity (αβ) of each modulator with ACh in the investigated signalling pathway. We aimed to identify modulators with various degrees of allosteric agonism and modulatory effects on ACh response, as these could generate distinct in vivo outcomes for applications in different conditions in the CNS or gastrointestinal (GI) tract.[[10g,h,j]]
(§1) The compounds were then fully characterised in two functional assays (Figure 2C and D); the Gq-coupled IP1 accumulation assay (Figure S2), which was used for the initial screening of the compounds, and a β-arrestin 2 recruitment assay (Figure S3). The operational efficacy (τB) values for the modulators and their functional cooperativity estimates with ACh (logαβACh) at both signalling pathways were estimated by applying an operational model of allosterism and agonism to the data [Eq. (3)],[16] and are listed in Table 5.
FlpIn CHO cells stably expressing the hM1 mAChR were seeded at 25000 per well of 96-well transparent cell culture plates and grown overnight. […] Cells were then stimulated with increasing concentration of ACh in the absence or presence of increasing concentrations of each modulator for 1 h at 37°C. […] Seven μL of cell lysates were transferred into wells of 384-well Proxiplates (Perki-nElmer Life Sciences), and IP1 levels were measured using the IP-One assay kit (Cisbio, Codolet, France). […] The signal was expressed as the HTRF ratio, interpolated from the standard curve, and normalized to the maximum response to ACh.
Changes in both baseline and pEC50 were quantified by subtracting the estimates at each M1 PAM concentrations with the control values. Propagation of the error on baseline and potency values were determined as follows [Eq. (1)]: σΔ=σPAM2+σcont.2 where σΔ is the standard error of the mean (SEM) for the change in value, and σPAM and σcont. are the SEM from the three-parameter logistic equation analysis in presence or absence of M1 PAM, respectively.
(§2) Functional interaction studies between ACh and allosteric modulators in IP1 and β-arrestin 2 recruitment assays were analysed according to a three-parameter logistic equation or the following operational model of allosterism and agonism [Eq. (3)].[16] E=Basal+(Em−Basal)([A](KB+αβ[B])+τB[B]EC50)^n/EC50n(KB+[B])^n+([A](KB+αβ[B])+τB[B]EC50)^n where Em is the maximal possible system response, and Basal is the response in the absence of agonist. [A] and [B] are concentrations of orthosteric and allosteric ligands, respectively. KB is the equilibrium dissociation constant of allosteric ligand, and EC50 is the concentration of orthosteric agonist required to achieve half maximal response. α and β represent the magnitude of the allosteric effects on orthosteric ligand affinity and efficacy, respectively; τB is the efficacy of allosteric ligand, and n is the slope factor of the transducer function that links occupancy to response.

[2] = target: T1, hM1 mAChR; assay: Whole-cell [3H]NMS equilibrium competition radioligand binding; conditions: [3H]NMS binding; for α (binding cooperativity with ACh): antilog
Procedure: To determine the affinity (pKB) of the allosteric modulators for the allosteric site, and their binding cooperativity with ACh (log αACh) at the M1 mAChR, whole cell equilibrium competition binding studies were performed, using [^3H]NMS to label the orthosteric site.
FlpIn Chinese hamster ovary (CHO) cells stably expressing the hM1 mAChR were grown in Dulbecco’s modified Eagle’s medium (DMEM) (Invitrogen, Carlsbad, CA) supplemented with 5% foetal bovine serum (FBS) (Thermo-Trace, Melbourne, Australia) and 300 μg/mL G418 (Invitrogen, Carlsbad, CA). The cells were plated at 50,000 cells per well of 96-well white clear bottom plates (Greiner Bio-one, Kremsmünster, Austria), and were grown overnight. The following day, cells were washed twice with Phosphate Buffered Saline (PBS), and incubated with increasing concentrations of ACh (Sigma) in the absence or presence of increasing concentrations of each modulator and 0.2 nM [^3H]NMS (PerkinElmer Life Sciences) in binding buffer (20 mM HEPES, 100 mM NaCl, 10 mM MgCl2, pH 7.4) for 5 h at room temperature. Nonspecific binding was determined using atropine at the final concentration of 10 μM. The assays were terminated by rapid removal of the unbound radioligand followed by two washes with 100 μL/well ice-cold 0.9% NaCl buffer. Radioactivity was determined by addition of 100 μL/well Ultima gold (PerkinElmer Life Sciences) and counting in a MicroBeta plate reader (PerkinElmer Life Sciences).
Binding interaction studies with allosteric ligands were fitted to the following allosteric ternary complex model [Eq. (2)][15] Y=Bmax|A|/[Λ]+[KAKB/α^′[B]+KB][1+[I]/K1+[B]/KB+α[I][B]/KIKB] where Bmax is the total number of receptors, [A], [B] and [I] denote the concentrations of radioligand, allosteric modulator, and orthosteric ligand, respectively; KA, KB and KI are their respective equilibrium dissociation constants. α’ and α are the affinity cooperativity factors between the allosteric ligand and radioligand or the allosteric modulator and ACh, respectively. Values of α or α’ > 1 denote positive cooperativity, values < 1 but > 0 denote negative cooperativity, and a value of 1 indicates neutral coopera-tivity.

[3] = target: T2, M1 mAChR (Homo sapiens, UniProt P11229); assay: β-arrestin 2 recruitment assay (BRET); format: cell-based; conditions: for αβ (functional cooperativity with ACh) / τB (intrinsic efficacy of the modulator): antilog, in parentheses; for log τB (logarithm of intrinsic efficacy of the modulator) / log αβ (logarithm of functional cooperativity between ACh and modulator): operational model; for log αβ (logarithm of functional cooperativity between ACh and modulator): pKB constrained to binding value
T2 construct: expressed in transfected cells; host or cells: parental FlpIn CHO cells (transient, PEI)
T2 sequence (P11229 1-460): T1 sequence (P11229 1-460)
Description: as §1
Parental FlpIn CHO cells were plated at 30000 cells/well of 96-well white Culture plates (Perkin Elmer Life Sciences) and transiently transfected with 10 ng/well of M1 Renilla luciferase (Rluc)-8 and 40 ng/well of YFP-β-arrestin 2 using linear polyethyleneimine (PEI/DNA ratio 6:1) diluted in 150 mM NaCl. DNA:PEI complexes were formed by 15 min incubation at room temperature then added to the cells and incubated at 37°C for 24 h prior to use. Cells were then washed and equilibrated in Hanks’ balanced salt solution for 1 h at 37°C. Coelenterazine h at a final concentration of 5 μM was added to each well, followed by addition of increasing concentrations of ACh in the absence or presence of increasing concentrations of each modulator. Lumines-cence and fluorescence signals were measured 5 min after agonist stimulation using the LUMIstar Omega plate reader (BMG LabTech, Offenburg, Germany). […] Data were then normalized to the maximum response to ACh.
as §2

[4] = allosteric ternary complex model, mean ± SEM, read-out: pKB (negative logarithm of the allosteric modulator equilibrium dissociation constant) (converted)

Structure (SMILES)	αβ (functional cooperativity with ACh) [1]	τB (intrinsic efficacy of the modulator) [1]	log τB (logarithm of intrinsic efficacy of the modulator) [1]	log αβ (logarithm of functional cooperativity between ACh and modulator) [1]	α (binding cooperativity with ACh) ([2]; in parentheses)	log αACh (logarithm of binding cooperativity between ACh and modulator) ([2]; mean ± SEM)	αβ (functional cooperativity with ACh) [3]	τB (intrinsic efficacy of the modulator) [3]	log τB (logarithm of intrinsic efficacy of the modulator) [3]	log αβ (logarithm of functional cooperativity between ACh and modulator) [3]	ΔpEC50 [1 μM]: change in ACh pEC50 in presence of M1 PAM compared to control curve [1]	activation at 1 µM [1] [%]	ΔpEC50 [10 μM]: change in ACh pEC50 in presence of M1 PAM compared to control curve [1]	activation at 10 µM [1] [%]	Kb [2, 4] [µM]	Kb ([2]; antilog of pKB, in parentheses, read-out: KB (converted)) [µM]
COc1ccc(Cn2cc(C(=O)O)c(=O)c3ccccc32)cc1 [BQCA, reference compound]	389	6	0.76±0.03	2.59±0.07	245	2.39±0.22	89	1	–0.03±0.10	1.95±0.19						
Cn1cc(-c2ccc(COc3ccccc3-c3ccn(C4CCCCC4O)c(=O)c3)cc2)cn1 (centres unmarked) [Compound 1, 1-(2-Hydroxycyclohexyl)-4-(2-((4-(1-methyl-1H-pyrazol-4-yl)-benzyl)oxy)phenyl)pyridin-2(1H)-one]	100	4	0.60±0.03	2.00±0.10	112	2.05±0.17	65	1	–0.01±0.05	1.81±0.09	0.88±0.09	15.8 ± 2.3	1.31±0.15	58.3 ± 2.3	11	
Cn1cc(-c2ccc(COc3ccsc3-c3ccn(C4CCCCC4O)c(=O)c3)cc2)cn1 (centres unmarked) [Compound 7h, 1-(2-Hydroxycyclohexyl)-4-(3-((4-(1-methyl-1H-pyrazol-4-yl)benzyl)oxy)thiophen-2-yl)pyridin-2(1H)-one]	562	6	0.78±0.04	2.75±0.11	380	2.58±0.18	955	1	0.07±0.05	2.98±0.10	1.88±0.37	70.8 ± 4	2.28±0.77	90.3 ± 3.1	6.03	
Cn1cc(-c2ccc(COc3ccccc3-c3ccn(C4CCCCC4=O)c(=O)c3)cc2)cn1 (centres unmarked) [Compound 13d, 4-(2-((4-(1-Methyl-1H-pyrazol-4-yl)benzyl)oxy)phenyl)-1-(2-oxocy-clohexyl)pyridin-2(1H)-one]	30	1		1.48±0.11	52	1.72±0.20	14			1.16±0.17	0.29±0.05	4.8 ± 1.4	1.31±0.06	27 ± 1.5	29.5	30
